{"source": "patent US7981871B2", "about": "“Modified macromolescules and associated methods of synthesis and use” (University of Utah Research Foundation, priority 2003, dated 2011)", "test_in_all_cases": "Sensitivity to PI3K inhibitor and Taxol in 3-D culture (Carbylan-GSX hydrogels)", "assay_type_in_all_cases": "cell-based, Human", "key": {"CaCo-2": {"test_system": "CaCo-2", "procedure": "(§1) Human breast cancer cell lines (MDA-MB-231 and MDA-MB-468), colon adenocarcinoma cell lines (Caco2, HCT116, and HCA7), and ovarian cancer cell (SK-OV-3) were obtained from American Type Culture Collections (ATCC) and maintained in RPMI 1640 medium (GIBCO) supplemented with 10 mM HEPES, 10% fetal bovine serum (Hyclone), 0.4 mM sodium pyruvate, and […], 100 U/ml penicillin, and 100 ug/ml streptomycin.\n(§2) When reaching 80-90% confluence, the above cell lines were trypsinized with 0.25% trypsin containing 1 mM EDTA and suspended in 1.25% (w/v) Carbylan™-S and 3% (w/v) gelatin-DTPH in a 50:50 (v/v) ratio in serum-free RPMI medium (pH 7.4), and then 4% (w/v) solution of PEGDA in DPBS buffer was added to the Carbylan™-S/gelatin-DTPH solution at a ratio of 4:1 (Carbylan™-S :PEGDA, v:v) and mixed by vortexing for 30 second. The final concentration of cells in Carbylan™-GSX solution was 2.0×10^6/ml. Aliquots ([…]) of each reaction mixture loaded with cells were transferred by pipette into 24-well cell culture inserts (Coming incorporated, Coming, N.Y.) with 6.5 mm in diameter and […]. The cell loaded inserts were incubated in incubator (37° C. and 5% CO2) for two hours and then 2 ml of RPMI 1640 medium containing 10% FBS was added into each into each insert. The media were changed every two days. Two weeks after the initial culture, the media were removed from the inserts and changed with 10 mM of LY-294002 (Sigma) and 1 mg/ml of paclitaxel (Sigma) in RPMI 1640 medium containing 0.5% FBS. There were total eight inserts for each reagent each cell line. The media were also changed every two days. Two weeks after the media were changed to LY-294002 and paclitaxel containing media, the media were removed from the inserts and changed with 1.5 ml RPMI 1640 media containing 5% FBS and 15% (v/v) CellTiter 96 aqueous one solution cell proliferation assay (Promega, Madison, Wis.) and incubated in incubator (37° C. and 5% CO2) for three hours and then the reaction solution was transferred into 96-well plate ([…]) and the absorbance was read at 550 nm with an OPTI Max microplate reader (Molecular Devices). The inserts were rinsed twice with DPBS buffer and stained with FDA and PI at RT for 5 min and observed using a confocal laser scanning microscope (LSM 510, Carl Zeiss Microimaging, Inc., Thornwood, N.Y.)."}, "HCA7": {"test_system": "HCA7", "conditions": "10 mM LY-294002 or 1 mg/ml paclitaxel, two weeks", "procedure": "as §1, §2"}, "HCT116": {"test_system": "HCT116", "conditions": "10 mM LY-294002 or 1 mg/ml paclitaxel, two weeks", "procedure": "as §1, §2"}, "MDA-MB-231": {"test_system": "MDA-MB-231", "conditions": "MDA-MB-231 in Carbylan-GSX; 10 mM LY-294002 or 1 mg/ml paclitaxel; two weeks", "procedure": "as §1, §2"}, "MDA-MB-468": {"test_system": "MDA-MB-468", "conditions": "MDA-MB-468 in Carbylan-GSX; 10 mM LY-294002 or 1 mg/ml paclitaxel; two weeks", "procedure": "as §1, §2"}, "SK-OV-3": {"test_system": "SK-OV-3", "procedure": "as §1, §2"}}, "data": [{"smiles": "CC(=O)O[C@H]1C(=O)[C@@]2(C)[C@H]([C@H](OC(=O)c3ccccc3)[C@]3(O)C[C@H](OC(=O)[C@H](O)[C@@H](NC(=O)c4ccccc4)c4ccccc4)C(C)=C1C3(C)C)[C@]1(OC(C)=O)CO[C@@H]1C[C@@H]2O", "note": "[paclitaxel]", "values": [{"measurement": "proliferation (CellTiter 96, absorbance at 550 nm)", "setting": "CaCo-2; CaCo-2 in Carbylan-GSX, 10 mM LY-294002 or 1 mg/ml paclitaxel, two weeks", "result": "inhibited"}, {"measurement": "cell density in sECM hydrogels (FDA/PI staining)", "setting": "CaCo-2; Caco-2, compared to cells cultured in normal medium", "result": "decreased"}, {"measurement": "proliferation (CellTiter 96, absorbance at 550 nm)", "setting": "HCA7", "result": "inhibited"}, {"measurement": "proliferation (CellTiter 96, absorbance at 550 nm)", "setting": "HCT116", "result": "inhibited"}, {"measurement": "proliferation (CellTiter 96, absorbance at 550 nm)", "setting": "MDA-MB-231", "result": "Neither LY294002 and paclitaxel showed any inhibition effects"}, {"measurement": "proliferation (CellTiter 96, absorbance at 550 nm)", "setting": "MDA-MB-468", "result": "inhibited"}, {"measurement": "3-D morphology (FDA/PI staining)", "setting": "SK-OV-3; SK-OV-3, compared to cells cultured in normal medium", "result": "no obvious difference"}, {"measurement": "proliferation (CellTiter 96, absorbance at 550 nm)", "setting": "SK-OV-3; SK-OV-3 in Carbylan-GSX, 10 mM LY-294002 or 1 mg/ml paclitaxel, two weeks", "result": "Neither LY294002 and paclitaxel showed any inhibition effects"}]}]}
